Source: paper PMC6302903, “Protein and Chemical Determinants of BL-1249 Action and Selectivity for K2P Channels” (ACS Chemical Neuroscience, 2018)

Target: T1, K2P4.1(TRAAK) L147F (Mus musculus, UniProt O88454, L147F)
T1 construct: expressed in transfected cells; host or cells: Xenopus laevis oocytes, mRNA injected
Test: TEVC of K2P4.1(TRAAK) mutant L147F
Assay type: cell-based
Details: Xenopus oocytes
Text: To identify K2P2.1(TREK-1) M2 residues that might participate in the BL-1249 response, we mapped the residues that differ between K2P2.1(TREK-1) and K2P4.1(TRAAK) in the context of the K2P2.1(TREK-1) structure[6] (Figure 5B,C). Two K2P2.1(TREK-1) M2 residues stood out as candidates that could explain the reduction in BL-1249 response when the entire M2 helix was replaced with M2 from K2P4.1(TRAAK). One is at the M2/M4 interface and occurs between Phe172 and Arg297 via a π–cation interaction that would be lost when Phe172 is replaced with the equivalent K2P4.1(TRAAK) residue Met134 (Figure 5C, right inset). […] To assess the importance of these interactions in the context of BL-1249 response, we made the K2P2.1(TREK-1) mutants F172M and F185L and measured their responses to BL-1249 (Figure 5D). […]
Xenopus laevis oocytes were harvested in accordance with UCSF IACUC protocol AN129690 and digested in calcium-free ND-96 (96 mM NaCl, 2 mM KCl, 3.8 mM MgCl2) immediately following harvest, as previously described.[6],[10] […] Defolliculated stage V–VI oocytes were injected with 0.2–6.0 ng of mRNA in 50 nL, and currents were recorded 24–48 h after injection. mRNA was synthesized from plasmid DNA using mMessage mMachine Kit (T7 promoter, Ambion, Life Technologies) and purified using RNEasy Kit (Qiagen). […]

T1 sequence (O88454 whole entry L147F): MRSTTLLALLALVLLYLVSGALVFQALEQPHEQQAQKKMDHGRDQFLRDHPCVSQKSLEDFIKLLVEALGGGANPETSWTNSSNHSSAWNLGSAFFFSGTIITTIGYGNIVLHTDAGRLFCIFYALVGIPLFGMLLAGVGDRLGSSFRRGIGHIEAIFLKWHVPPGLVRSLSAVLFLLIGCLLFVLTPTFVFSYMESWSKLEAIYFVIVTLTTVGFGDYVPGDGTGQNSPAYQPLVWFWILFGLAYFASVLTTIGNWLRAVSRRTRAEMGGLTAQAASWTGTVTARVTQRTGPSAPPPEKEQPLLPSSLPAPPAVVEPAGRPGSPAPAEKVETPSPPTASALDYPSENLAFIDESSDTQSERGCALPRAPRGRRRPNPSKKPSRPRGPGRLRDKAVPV

c1ccc(-c2nnn[nH]2)c(Nc2cccc3c2CCCC3)c1 [BL-1249, (5,6,7,8-tetrahydro-naphthalen-1-yl)-[2-(1H-tetrazol-5-yl)-phenyl]-amine]
EC50: 27 ± 4 µM
